Target: MerE (Shigella flexneri, UniProt Q7AKA4)
Settings: 5 uM compound, LB broth with 100 ug/mL chloramphenicol and 100 uM EDTA, 37 °C

MerE, sequence (Q7AKA4 whole entry): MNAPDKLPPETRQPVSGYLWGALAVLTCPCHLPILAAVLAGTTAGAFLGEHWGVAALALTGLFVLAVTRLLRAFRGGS

## [CH3][Hg][Cl] [CH3Hg(I)]
  uptake of 14C-labelled compound by E. coli XL1-Blue cells, filtration and scinti: cells with pE4 took up significantly more CH3Hg(I) than control cells
